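Step 1: Grow cells in 96-well plates. Step 2: Expose to compound for 48 hours at 5 concentrations. Step 3: Interpolate endpoints linearly; if unreached, use highest concentration. GI50 marks 50% less growth.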 Active and inactive are the calls of the source. Rule as the data show it: active = GI50 up to about 1.1 µM and inactive = higher.
Experiments:
Assay in all cases: NCI-60 cell line screen, 48 h
SF-268 = test system: SF-268
KM12 = test system: KM12
A549 = test system: A549
OVCAR-4 = test system: OVCAR-4
MOLT-4 = test system: MOLT-4
KM-20L2 = test system: KM-20L2
OVCAR-3 = test system: OVCAR-3
TK-10 = test system: TK-10
NCI-H522 = test system: NCI-H522
NCI-H226 = test system: NCI-H226
CCRF-CEM = test system: CCRF-CEM
SF-539 = test system: SF-539
UACC-257 = test system: UACC-257
OVCAR-5 = test system: OVCAR-5
ACHN = test system: ACHN
M14 = test system: M14
UO-31 = test system: UO-31
A498 = test system: A498
SR = test system: SR
PC-3 = test system: PC-3

O=c1nc2sc3ccc4ccccc4c3n2nc1O
GI50 (SF-268): 40.4 µM (inactive) | GI50 (KM12): > 100 µM (inactive) | GI50 (A549): > 100 µM (inactive) | GI50 (OVCAR-4): 28.8 µM (inactive) | GI50 (MOLT-4): 57.4 µM (inactive) | GI50 (KM-20L2): 25.3 µM (inactive) | GI50 (OVCAR-3): 55.2 µM (inactive) | GI50 (TK-10): > 100 µM (inactive) | GI50 (NCI-H522): 53.7 µM (inactive) | GI50 (NCI-H226): 30.5 µM (inactive) | GI50 (CCRF-CEM): 40.1 µM (inactive) | GI50 (SF-539): > 100 µM (inactive)

c1ccc(COc2cccc3cccnc23)cc1
GI50 (SF-268): 28.4 µM (inactive) | GI50 (KM12): 61.4 µM (inactive) | GI50 (A549): > 100 µM (inactive) | GI50 (OVCAR-4): 97.3 µM (inactive) | GI50 (MOLT-4): > 100 µM (inactive) | GI50 (KM-20L2): > 100 µM (inactive) | GI50 (UACC-257): > 100 µM (inactive) | GI50 (OVCAR-3): 63.5 µM (inactive) | GI50 (OVCAR-5): > 100 µM (inactive) | GI50 (TK-10): > 100 µM (inactive) | GI50 (NCI-H522): 50.9 µM (inactive) | GI50 (NCI-H226): > 100 µM (inactive) | GI50 (CCRF-CEM): 31.5 µM (inactive) | GI50 (ACHN): > 100 µM (inactive) | GI50 (M14): > 100 µM (inactive) | GI50 (SF-539): > 100 µM (inactive) | GI50 (UO-31): 56.9 µM (inactive)

CC1=NN(C(=O)CC(=O)NC(=O)CC(=O)Nc2ccccc2F)C(=O)C1/N=N/c1ccc([N+](=O)[O-])cc1 (stereo unspecified)
GI50 (SF-268): 82.2 µM (inactive) | GI50 (KM12): 56.1 µM (inactive) | GI50 (A549): 35 µM (inactive) | GI50 (OVCAR-4): 29.9 µM (inactive) | GI50 (MOLT-4): 39.3 µM (inactive) | GI50 (A498): 34.3 µM (inactive) | GI50 (KM-20L2): 29.8 µM (inactive) | GI50 (UACC-257): 29.6 µM (inactive) | GI50 (OVCAR-3): 28.6 µM (inactive) | GI50 (OVCAR-5): 97.7 µM (inactive) | GI50 (TK-10): 44.1 µM (inactive) | GI50 (NCI-H226): 33.1 µM (inactive) | GI50 (CCRF-CEM): 33.3 µM (inactive) | GI50 (ACHN): 30.1 µM (inactive) | GI50 (M14): 57.4 µM (inactive) | GI50 (SF-539): > 100 µM (inactive) | GI50 (UO-31): 26.7 µM (inactive)

C/C(=N\O)C(CN1CCCCC1)C(c1ccccc1)c1c(O)c2ccccc2oc1=O (stereo unspecified)
GI50 (SF-268): > 100 µM (inactive) | GI50 (A549): > 100 µM (inactive) | GI50 (OVCAR-4): > 100 µM (inactive) | GI50 (A498): > 100 µM (inactive) | GI50 (KM-20L2): > 100 µM (inactive) | GI50 (UACC-257): > 100 µM (inactive) | GI50 (OVCAR-3): > 100 µM (inactive) | GI50 (OVCAR-5): > 100 µM (inactive) | GI50 (TK-10): > 100 µM (inactive) | GI50 (NCI-H522): > 100 µM (inactive) | GI50 (NCI-H226): > 100 µM (inactive) | GI50 (CCRF-CEM): > 10 µM (inactive) | GI50 (ACHN): > 100 µM (inactive) | GI50 (M14): > 100 µM (inactive) | GI50 (SF-539): > 100 µM (inactive)

Nc1ccc(/C=C/c2ccnc3ccccc23)cc1
GI50 (SF-268): 16.5 µM (inactive) | GI50 (KM12): 16.2 µM (inactive) | GI50 (A549): 19.4 µM (inactive) | GI50 (OVCAR-4): 30 µM (inactive) | GI50 (MOLT-4): 7.76 µM (inactive) | GI50 (KM-20L2): 20.2 µM (inactive) | GI50 (UACC-257): 22.2 µM (inactive) | GI50 (OVCAR-3): 15 µM (inactive) | GI50 (OVCAR-5): 19.6 µM (inactive) | GI50 (SR): 2.84 µM (inactive) | GI50 (TK-10): 17.4 µM (inactive) | GI50 (NCI-H522): 13.2 µM (inactive) | GI50 (NCI-H226): 17.7 µM (inactive) | GI50 (CCRF-CEM): 12.1 µM (inactive) | GI50 (ACHN): 19.2 µM (inactive) | GI50 (M14): 20.2 µM (inactive) | GI50 (SF-539): 20 µM (inactive) | GI50 (UO-31): 16.5 µM (inactive)

C=CCNC1=C2C[C@@H](C)C[C@H](OC)[C@H](O)[C@@H](C)/C=C(\C)[C@H](OC(N)=O)[C@@H](OC)/C=C\C=C(/C)C(=O)NC(=CC1=O)C2=O [TANESPIMYCIN]
GI50 (SF-268): 0.593 µM (active) | GI50 (KM12): 0.0165 µM (active) | GI50 (A549): 0.0369 µM (active) | GI50 (OVCAR-4): 4.39 µM (inactive) | GI50 (MOLT-4): 0.527 µM (active) | GI50 (A498): 5.07 µM (inactive) | GI50 (UACC-257): 0.0532 µM (active) | GI50 (OVCAR-3): 0.115 µM (active) | GI50 (OVCAR-5): 0.177 µM (active) | GI50 (SR): 0.0158 µM (active) | GI50 (TK-10): 0.0881 µM (active) | GI50 (NCI-H522): 0.0431 µM (active) | GI50 (NCI-H226): 4.49 µM (inactive) | GI50 (CCRF-CEM): 0.493 µM (active) | GI50 (PC-3): 0.047 µM (active) | GI50 (ACHN): 0.127 µM (active) | GI50 (M14): 0.0214 µM (active) | GI50 (SF-539): 0.0428 µM (active) | GI50 (UO-31): 0.428 µM (active)

Cc1ccc(/N=N/C(=N/NC(=O)c2ccccc2)c2ccc(N(CCC#N)CCC#N)cc2C)cc1
GI50 (SF-268): 41.9 µM (inactive) | GI50 (KM12): 29.3 µM (inactive) | GI50 (A549): 34.3 µM (inactive) | GI50 (OVCAR-4): 99.8 µM (inactive) | GI50 (MOLT-4): 61.1 µM (inactive) | GI50 (A498): 19.8 µM (inactive) | GI50 (UACC-257): 55 µM (inactive) | GI50 (OVCAR-3): 12.5 µM (inactive) | GI50 (OVCAR-5): > 100 µM (inactive) | GI50 (SR): 5.79 µM (inactive) | GI50 (TK-10): > 100 µM (inactive) | GI50 (NCI-H522): 15.5 µM (inactive) | GI50 (NCI-H226): 44 µM (inactive) | GI50 (CCRF-CEM): 30.3 µM (inactive) | GI50 (PC-3): 26.7 µM (inactive) | GI50 (ACHN): > 100 µM (inactive) | GI50 (M14): 78.2 µM (inactive) | GI50 (SF-539): 19.3 µM (inactive) | GI50 (UO-31): > 100 µM (inactive)

CC(=O)O/C=C\OC1CCCC1(c1ccccc1)c1ccccc1 (stereo unspecified)
GI50 (SF-268): 2.92 µM (inactive) | GI50 (KM12): 3.49 µM (inactive) | GI50 (A549): 20.4 µM (inactive) | GI50 (OVCAR-4): 2.1 µM (inactive) | GI50 (MOLT-4): 2.79 µM (inactive) | GI50 (A498): 18 µM (inactive) | GI50 (UACC-257): 3.65 µM (inactive) | GI50 (OVCAR-3): 2.9 µM (inactive) | GI50 (OVCAR-5): 7.13 µM (inactive) | GI50 (SR): 1.98 µM (inactive) | GI50 (TK-10): 3.48 µM (inactive) | GI50 (NCI-H522): 10.1 µM (inactive) | GI50 (NCI-H226): 9.04 µM (inactive) | GI50 (CCRF-CEM): 2.37 µM (inactive) | GI50 (PC-3): 3.12 µM (inactive) | GI50 (ACHN): 2.03 µM (inactive) | GI50 (M14): 2.47 µM (inactive) | GI50 (SF-539): 1.73 µM (inactive) | GI50 (UO-31): 1.94 µM (inactive)
